From US7772253B2 (Hoffman-La Roche Inc., priority 2005, dated 2010)

Each molecule was assayed against T1, human subtype 5 somatostatin receptor (Homo sapiens, UniProt P35346) (assay: Binding of 125-I-labeled 11-Tyr somatostatin-14 tracer to membranes of CHO cells expressing SSTR5). Conditions: CHO cell membranes, Ki calculated from IC50 by Cheng-Prussoff equation.
T1 construct: host or cells: CHO cell line, stably transfected; membranes
Experimental: A CHO cell line stably transfected with a plasmid encoding the human subtype 5 somatostatin receptor (GenBank accession number D16827) was obtained from Euroscreen. Cells were cultured and used for binding and functional assays.
Membranes of these cells were prepared by sonication in the presence of protease inhibitors and subsequent fractionating centrifugation. The protein concentration in the membrane preparation was determined using a commercial kit (BCA kit, Pierce, USA). Membranes were stored at −80° C. until use. After thawing, membranes were diluted in assay buffer (50 mM TRIS-HCl at pH 7.4, 5 mM MgCl2 and 0.20% BSA (bovine serum albumine)) and subjected to dounce homogenization.
For binding studies, 0.1 ml membrane suspension, corresponding to app. 6×10^−15 mol receptor, was incubated for 1 hour at room temperature with 0.05 nM ^125-I-labeled tracer (11-Tyr somatostatin-14, Perkin-Elmer) and either test compounds in varying concentrations or, for the determination of non-specific binding, 0.001 mM non-labeled somatostatin-14 (Sigma-Aldrich, Buchs, Switzerland). The incubation was stopped by filtration through GF/B glassfiber filters (Unifilter, Perkin-Elmer) and washing with ice-cold wash buffer (50 mM Tris-HCl at pH 7.4). The bound radioactivity was measured after application of a scintillation cocktail (Microscint 40, Perkin-Elmer) and expressed as disintegrations per minute (dpm).
The receptor concentration was determined in a prior saturation experiment where a fixed, arbitrary amount of membranes was incubated with a concentration range of radio-labeled tracer. This allows estimating the total number of specific binding sites per amount of protein (i.e. Bmax), typically between 1 and 5 pmol/mg.
The concentration of the test compound required to result in half maximal inhibition of binding of the radio-labeled tracer (IC50) was estimated from a concentration-versus-dpm graph. The binding affinity (Ki) was calculated from the IC50 by applying the Cheng-Prussoff equation for single binding sites.

T1 sequence (P35346 whole entry): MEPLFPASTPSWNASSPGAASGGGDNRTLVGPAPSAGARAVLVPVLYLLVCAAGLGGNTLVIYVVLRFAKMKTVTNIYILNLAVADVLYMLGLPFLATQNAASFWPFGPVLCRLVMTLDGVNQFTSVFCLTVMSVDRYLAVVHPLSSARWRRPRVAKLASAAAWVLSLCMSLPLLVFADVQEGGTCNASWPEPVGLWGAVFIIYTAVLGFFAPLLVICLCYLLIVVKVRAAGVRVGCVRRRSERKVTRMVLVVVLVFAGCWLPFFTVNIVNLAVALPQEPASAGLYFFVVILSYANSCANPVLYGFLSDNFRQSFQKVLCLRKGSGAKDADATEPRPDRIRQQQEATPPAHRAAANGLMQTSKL

SMILES | Ki [nM]
CCOC(=O)c1c(OCC)cc(CN2CCC(NC(=O)c3cncc(C)c3)CC2)cc1OCC [Example 35, N-[1-(3,5-Diethoxy-4-ethoxycarbonyl-benzyl)piperidin-4-yl]-5-methyl-nicotinamide] | 19
CCOc1cc(CN2CCC(NC(=O)c3cncc(C)c3)CC2)ccc1Cl [Example 30, N-[1-(4-Chloro-3-ethoxy-benzyl)piperidin-4-yl]-5-methyl-nicotinamide] | 38
CCOc1cc(CN2CCC(NC(=O)c3cccc(C(N)=O)c3)CC2)ccc1Cl [Example 6] | 126
